Experiments:
[1] = Potency comparison of separated enantiomers (test not specified); settings: (R)- versus (S)-enantiomer separated on Chiralpak AD
Experimental: An enriched 3:1 R:S mixture of chromenone enantiomers was separated into its pure enantiomers by chiral chromatography with the following conditions: Column—Chiralpak AD, 250×4.6 mm (Diacel Inc.). Sample—22.5 mg/ml in 1:1 i-PrOH:hexanes. Conditions—40 min at isocratic 50% i-PrOH in Hexanes, (S)-enantiomer elutes at 18.35 min, (R)-enantiomer elutes at 26.87 min.

[2] = tested on: A549 cells; settings: cited from earlier work

| Compound | relative potency of enantiomers [1] | GI50 [2] [nM] |
| --- | --- | --- |
| Cc1ccc(C(=O)N(CCCN)[C@@H](c2oc3cc(Cl)ccc3c(=O)c2Cc2ccccc2)C(C)C)cc1 (single isomer, unassigned) [Example 2 (R)-enantiomer] | significantly more potent than the (S)-enantiomer | – |
| O=c1[nH]cc(F)c(=O)[nH]1 [5-fluorouracil] | – | 1000 |
| COc1cccc2c1C(=O)c1c(O)c3c(c(O)c1C2=O)C[C@@](O)(C(=O)CO)C[C@@H]3O[C@H]1C[C@H](N)[C@H](O)[C@H](C)O1 [doxorubicin] | – | 63 |
| NC(=O)NO [hydroxyurea] | – | 500000 |
| CC(=O)O[C@H]1C(=O)[C@@]2(C)[C@H]([C@H](OC(=O)c3ccccc3)[C@]3(O)C[C@H](OC(=O)[C@H](O)[C@@H](NC(=O)c4ccccc4)c4ccccc4)C(C)=C1C3(C)C)[C@]1(OC(C)=O)CO[C@@H]1C[C@@H]2O [paclitaxel] | – | 4 |

Source: patent publication US8633236B2, “Compounds, compositions and methods” (Cytokinetics, Inc., priority 2002, dated 2014)
